The values that follow come from US8084621B2, “3-Pyrrolo[b]cyclohexylene-2-dihydroindolinone derivatives and uses thereof” (Jiangsu Simcere Pharmaceutical R&D Co. Ltd., priority 2006, dated 2011).

The target in the assay is T1, c-Kit (Homo sapiens, UniProt P10721).
T1 construct: purchased Cell Signaling Technology CO
Kind of assay: Protein kinase activity by ELISA in vitro, c-Kit. It is filed as biochemical. Particulars: concentration of 10^−7 mol/L; read-out: kinase inhibition ratio, c-Kit.
Source text: (§1) An ELISA (Enzyme-Linked Immunosorbent Sandwich Assay) procedure may be used to detect and measure the level of protein tyrosine kinase activity. Tyrosine kinases such as VEGFR-2, PDGFR-β and c-Kit etc. catalyze the phosphorylation reaction of ATP and biotin-labeled peptide substrate, which will be ceased when the kinase activity is inhibited. According to the principle of ELISA, a monoclonal antibody can react with phosphorylated substrate specially, so biotin-labeled substrate is binded to streptavidin-coated ELISA plate, and then binded to a HRP-labeled goat anti-mouse antibody. Finally TMB is added for a color reaction and the value of A450-A630 is read by ELISA plate reader. The OD value can reflect the inhibitory activity of the VEGFR-2, PDGFR-β, c-Kit tyrosine kinases etc. treated with the test compounds at the different concentrations. So, the assay may be used to measure the inhibition ratio of the compounds for the tyrosine kinase activity. Similar assays can be designed along the same lines for any PK using techniques well known in the art.
as §1, with “Tyrosine” for “An ELISA (Enzyme-Linked Immunosorbent Sandwich Assay) procedure may be used to detect and measure the level of protein tyrosine kinase activity. Tyrosine”, “PDGFR-β” for “PDGFR-β,”, “kinases” for “kinases etc.”
VEGF Receptor 2, PDGF Receptor-beta and c-kit kinase assay kit (include kinase, 1.25M DTT, substrate peptide, 10 mM ATP, P-Tyr-100 Mouse antibody, 4×HTScan tyrosine kinase buffer), Cell Signaling Technology CO.; HRP labeled goat anti mouse IgG, Protein Tech CO.; TMB, Pierce CO.; Streptavidin Microtitration Plate, Greiner Bio-one CO.; Infinite M200 Reader, Tecan CO.
1.2.1 Immediately transfer enzyme from −80° C. to ice. Allow enzyme to thaw on ice then at 4° C. and centrifugate transiently to the bottom of centrifuge tube, then lay back on ice quickly
1.2.2 Add 10 μl of DTT (1.25 M) to 2.5 ml of 4×HTScan tyrosine kinase buffer (240 mM HEPES pH 7.5, 20 mM MgCl2, 20 mM MnCl2, 12 μM Na3VO4). Transfer 0.6 ml of DTT/Kinase buffer to each enzyme tube to make 4× reaction Cocktail. Incubate 12.5 μl of the 4× reaction cocktail with 12.5 μl/well prediluted compound of interest for 5 minutes at room temperature, and set blank control, free-enzyme control, negative control and positive control. 1.2.3 Add 10 μl 10 mM ATP to 1.25 ml 6 μM substrate peptide. Dilute the mixture with dH20 to 2.5 ml to make 2×ATP/substrate cocktail. Add 25 μl of 2×ATP/substrate cocktail to 25 μl/well preincubated reaction cocktail/compound. Incubate reaction plate at room temperature for 30 minutes. 1.2.4 Add 50 μl/well stop Buffer (50 mM EDTA, pH 8) to stop the reaction. Transfer 25 μl of each reaction and 75 μl dH2O/well to a 96-well streptavidin coated plate and incubate at room temperature for 60 minutes. Wash three times with 200 μl/well PBS/T(1×PBS, 0.05% Tween-20). 1.2.5 Dilute primary antibody, Phospho-Tyrosine mAb (P-Tyr-100), 1:500 in PBS/T with 1% BSA. Add 100 μl/well primary antibody. Incubate at room temperature for 60 minutes. Wash three times with 200 μl/well PBS/T(1×PBS, 0.05% Tween-20). 1.2.6 Prepare appropriate dilution of HRP labeled secondary antibody, 1:500 in PBS/T with 1% BSA. Add 100 μl/well secondary antibody solution. Incubate at room temperature for 30 minutes. […]
For orientation: In an ELISA, binding on a coated surface is turned into a signal by an enzyme label.

T1 sequence (P10721 26-976): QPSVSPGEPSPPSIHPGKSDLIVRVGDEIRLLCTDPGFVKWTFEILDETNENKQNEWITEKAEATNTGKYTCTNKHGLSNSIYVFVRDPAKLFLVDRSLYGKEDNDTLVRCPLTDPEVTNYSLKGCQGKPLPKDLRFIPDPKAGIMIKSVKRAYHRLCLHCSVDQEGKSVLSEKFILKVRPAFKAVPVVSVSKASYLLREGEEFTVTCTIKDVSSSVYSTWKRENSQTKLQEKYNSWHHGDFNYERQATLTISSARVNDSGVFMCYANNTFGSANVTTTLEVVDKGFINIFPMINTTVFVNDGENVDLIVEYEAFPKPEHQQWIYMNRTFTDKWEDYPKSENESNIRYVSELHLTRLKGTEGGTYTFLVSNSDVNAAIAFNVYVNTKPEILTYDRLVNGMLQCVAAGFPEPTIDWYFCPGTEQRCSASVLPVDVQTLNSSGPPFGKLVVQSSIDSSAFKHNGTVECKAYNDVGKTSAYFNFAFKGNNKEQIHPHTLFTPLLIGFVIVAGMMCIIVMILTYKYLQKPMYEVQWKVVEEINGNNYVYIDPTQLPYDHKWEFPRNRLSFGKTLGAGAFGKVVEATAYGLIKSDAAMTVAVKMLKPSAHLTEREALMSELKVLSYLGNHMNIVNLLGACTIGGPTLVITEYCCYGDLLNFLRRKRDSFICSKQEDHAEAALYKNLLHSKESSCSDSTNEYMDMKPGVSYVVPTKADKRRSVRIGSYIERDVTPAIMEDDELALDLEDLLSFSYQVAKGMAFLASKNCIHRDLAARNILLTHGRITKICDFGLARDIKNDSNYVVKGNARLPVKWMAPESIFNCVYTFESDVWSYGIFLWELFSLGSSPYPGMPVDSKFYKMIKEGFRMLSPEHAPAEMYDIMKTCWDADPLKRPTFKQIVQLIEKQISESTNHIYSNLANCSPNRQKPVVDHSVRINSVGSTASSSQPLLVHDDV

`CCN(CC)CCNC(=O)c1c(C)[nH]c2c1CCC/C2=C1/C(=O)Nc2ccc(F)cc21` [I-2, N-(2-(diethylamino)ethyl)-2-methyl-7-[1,2-dihydro-5-fluoro-2-oxo-3H-indol-(Z)-3-ylidene]-4,5,6,7-tetrahydro-1H-indole-3-carboxamide]: the inhibition at 0.1 µM is 46%.
Then `CCN(CC)CCNC(=O)c1c(C)[nH]c2c1CCC/C2=C1/C(=O)Nc2ccc(Cl)cc21` [I-3, N-(2-(diethylamino)ethyl)-2-methyl-7-[1,2-dihydro-5-chloro-2-oxo-3H-indol-(Z)-3-ylidene]-4,5,6,7-tetrahydro-1H-indole-3-carboxamide], with 43%; and `CCN(CC)CCNC(=O)c1c(C)[nH]c2c1CCC/C2=C1/C(=O)Nc2ccc(C)cc21` [I-4, N-(2-(diethylamino)ethyl)-2-methyl-7-[1,2-dihydro-5-methyl-2-oxo-3H-indol-(Z)-3-ylidene]-4,5,6,7-tetrahydro-1H-indole-3-carboxamide], with 60%; and `CCN(CC)CCNC(=O)c1c(C)[nH]c2c1CCC/C2=C1/C(=O)Nc2ccccc21` [I-5, N-(2-(diethylamino)ethyl)-2-methyl-7-[1,2-dihydro-2-oxo-3H-indol-(Z)-3-ylidene]-4,5,6,7-tetrahydro-1H-indole-3-carboxamide], with 67%.
As to `Cc1[nH]c2c(c1C(=O)NCCN(C)C)CCC/C2=C1/C(=O)Nc2ccc(F)cc21` [I-6, N-(2-(dimethylamino)ethyl)-2-methyl-7-[1,2-dihydro-5-fluoro-2-oxo-3H-indol-(Z)-3-ylidene]-4,5,6,7-tetrahydro-1H-indole-3-carboxamide], the inhibition at 0.1 µM is 77%.
Turning to `Cc1[nH]c2c(c1C(=O)NCCCN(C)C)CCC/C2=C1/C(=O)Nc2ccc(Cl)cc21` [I-7, N-(3-(dimethylamino)propyl)-2-methyl-7-[1,2-dihydro-5-chloro-2-oxo-3H-indol-(Z)-3-ylidene]-4,5,6,7-tetrahydro-1H-indole-3-carboxamide], the inhibition at 0.1 µM stood at 74%.
Then `Cc1[nH]c2c(c1C(=O)NCCO)CCC/C2=C1/C(=O)Nc2ccccc21` [I-8, N-(2-hydroxyethyl)-2-methyl-7-[1,2-dihydro-2-oxo-3H-indol-(Z)-3-ylidene]-4,5,6,7-tetrahydro-1H-indole-3-carboxamide], with 77%.
`CCN(CC)CC(O)CNC(=O)c1c(C)[nH]c2c1CCC/C2=C1/C(=O)Nc2ccccc21` (stereo not drawn) [I-63, N-(3-(diethylamino)-2-hydroxypropyl)-2-methyl-7-[1,2-dihydro-2-oxo-3H-indol-(Z)-3-ylidene]-4,5,6,7-tetrahydro-1H-indole-3-carboxamide]: the inhibition at 0.1 µM was 73%.
Regarding `Cc1[nH]c2c(c1C(=O)NCC(O)CN1CCCC1)CCC/C2=C1/C(=O)Nc2ccccc21` (stereo not drawn) [I-70, N-(2-hydroxy-3-(pyrrolidin-1-yl)propyl)-2-methyl-7-[1,2-dihydro-2-oxo-3H-indol-(Z)-3-ylidene]-4,5,6,7-tetrahydro-1H-indole-3-carboxamide], the inhibition at 0.1 µM came out at 76%.
